Experimental data reported in ChEMBL document CHEMBL5113372, “Paradigm shift of "classical" HDAC inhibitors to "hybrid" HDAC inhibitors in therapeutic interventions” (Eur J Med Chem, 2021).
One block for each compound: values may come before it.

Experiments:
[1] = biological target: T1, Protein deacetylase HDAC6 (Homo sapiens, UniProt Q9UBN7); assay: Inhibition of full-length recombinant human HDAC6 (1 to 1215 residues) expressed in Sf9 insect cells using fluorogenic substrate incubated for 30 mins by fluorescence based plate reader analysis
T1 sequence (Q9UBN7 whole entry): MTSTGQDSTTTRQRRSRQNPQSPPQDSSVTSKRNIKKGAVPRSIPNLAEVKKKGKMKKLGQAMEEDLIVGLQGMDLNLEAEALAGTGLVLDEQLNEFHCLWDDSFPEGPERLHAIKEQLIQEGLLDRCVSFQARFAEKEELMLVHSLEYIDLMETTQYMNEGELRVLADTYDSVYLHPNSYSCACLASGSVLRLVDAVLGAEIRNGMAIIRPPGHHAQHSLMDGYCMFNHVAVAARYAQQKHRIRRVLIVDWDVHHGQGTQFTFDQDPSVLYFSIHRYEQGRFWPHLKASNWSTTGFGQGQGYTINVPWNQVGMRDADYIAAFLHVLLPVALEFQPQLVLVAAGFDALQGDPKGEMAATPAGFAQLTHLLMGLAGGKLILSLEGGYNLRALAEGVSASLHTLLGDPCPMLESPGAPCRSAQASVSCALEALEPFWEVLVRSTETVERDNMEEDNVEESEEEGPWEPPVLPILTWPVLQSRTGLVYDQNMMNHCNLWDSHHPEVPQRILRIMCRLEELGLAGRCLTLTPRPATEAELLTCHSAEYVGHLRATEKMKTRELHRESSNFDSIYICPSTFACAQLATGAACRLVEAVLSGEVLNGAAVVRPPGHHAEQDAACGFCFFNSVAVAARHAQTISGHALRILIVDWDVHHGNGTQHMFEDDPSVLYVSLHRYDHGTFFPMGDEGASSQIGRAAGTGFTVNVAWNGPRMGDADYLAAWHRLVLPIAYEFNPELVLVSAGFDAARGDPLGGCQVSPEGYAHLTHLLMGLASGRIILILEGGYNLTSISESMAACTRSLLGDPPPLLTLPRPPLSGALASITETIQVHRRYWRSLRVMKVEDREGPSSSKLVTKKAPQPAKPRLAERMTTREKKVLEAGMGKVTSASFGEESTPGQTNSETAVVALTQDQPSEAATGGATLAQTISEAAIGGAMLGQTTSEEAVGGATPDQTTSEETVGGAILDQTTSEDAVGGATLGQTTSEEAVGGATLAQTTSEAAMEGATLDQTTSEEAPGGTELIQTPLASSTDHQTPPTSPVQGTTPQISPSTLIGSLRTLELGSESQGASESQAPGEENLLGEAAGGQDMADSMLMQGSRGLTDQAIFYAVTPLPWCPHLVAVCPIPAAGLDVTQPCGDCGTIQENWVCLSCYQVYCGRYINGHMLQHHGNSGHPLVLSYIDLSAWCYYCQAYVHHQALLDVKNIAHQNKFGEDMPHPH

[2] = biological target: T2, cGMP-specific 3',5'-cyclic phosphodiesterase (Homo sapiens, UniProt O76074); assay: Inhibition of N-terminal GST-tagged full-length recombinant human PDE5A1 (1 to 875 residues) expressed in Sf9 insect cells using cGMP as substrate incubated for 30 mins by HTRF assay
Histone deacetylase 1 [3] = biological target: T3, Histone deacetylase 1 (Homo sapiens, UniProt Q13547); assay: Inhibition of C-terminal 6xHis/FLAG-tagged full-length recombinant human HDAC1 (1 to 482 residues) expressed in Sf9 insect cells using fluorogenic substrate incubated for 30 mins by fluorescence based plate reader analysis
[4] = biological target: T4, High affinity cGMP-specific 3',5'-cyclic phosphodiesterase 9A (Homo sapiens, UniProt O76083); assay: Inhibition of N-terminal GST-tagged full-length human PDE9A2 expressed in baculovirus infected Sf9 insect cells using cGMP as substrate incubated for 30 mins by HTRF assay
[5] = biological target: T4, High affinity cGMP-specific 3',5'-cyclic phosphodiesterase 9A; assay: Inhibition of PDE9 (unknown origin)
[6] = biological target: T1, Protein deacetylase HDAC6; assay: Inhibition of HDAC6 (unknown origin)
[7] = Inhibition of PDE5 (unknown origin); design: species or system Homo sapiens
Histone deacetylase 2 = Histone deacetylase 2 (Homo sapiens, UniProt Q92769); assay: Inhibition of HDAC2 (unknown origin)
Histone deacetylase 1 [8] = biological target: T3, Histone deacetylase 1; assay: Inhibition of HDAC1 (unknown origin)
[9] = biological target: T2, cGMP-specific 3',5'-cyclic phosphodiesterase; assay: Inhibition of PDE5A (unknown origin)
[10] = biological target: 72 kDa type IV collagenase (Homo sapiens, UniProt P08253); assay: Inhibition of MMP2 (unknown origin) using chromogenic substrate incubated for 1 hr followed by substrate addition measured for 30 mins by microplate photometry
Histone deacetylase 8 [11] = biological target: T5, Histone deacetylase 8 (Homo sapiens, UniProt Q9BY41); assay: Inhibition of recombinant human HDAC8 using Fluor-de-lys substrate by fluorescence based microplate reader analysis
T5 sequence (Q9BY41 whole entry): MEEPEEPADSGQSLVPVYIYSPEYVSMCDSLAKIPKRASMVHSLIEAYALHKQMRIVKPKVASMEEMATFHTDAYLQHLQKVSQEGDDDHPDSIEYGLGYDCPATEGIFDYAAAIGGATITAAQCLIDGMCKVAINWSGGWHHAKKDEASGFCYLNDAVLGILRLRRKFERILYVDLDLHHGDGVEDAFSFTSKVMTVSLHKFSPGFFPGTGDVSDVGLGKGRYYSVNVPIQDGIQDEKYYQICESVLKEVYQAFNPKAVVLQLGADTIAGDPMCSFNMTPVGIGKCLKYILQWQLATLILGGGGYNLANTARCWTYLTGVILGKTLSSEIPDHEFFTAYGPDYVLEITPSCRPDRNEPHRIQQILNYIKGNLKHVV

[12] = biological target: Protein-glutamine gamma-glutamyltransferase (Homo sapiens, UniProt P21980); assay: Inhibition of recombinant human TG2 using N-Cbz-Glu(gamma-p-nitrophenylester) as substrate measured for 10 mins by absorbance based microplate reader analysis
Cortical neurone = assay: Neuroprotective activity against glutamate-induced mouse primary cortical neurons assessed as neuronal viability incubated for 24 hrs by MTT assay; type: functional, cell-based
[13] = biological target: Protein kinase C alpha type (Mus musculus, UniProt P20444); assay: Binding affinity to mouse PKC-alpha assessed as inhibition constant
Histone deacetylase 1 [14] = biological target: T3, Histone deacetylase 1; assay: Inhibition of His-tagged recombinant human HDAC1 (482 residues) expressed in baculovirus infected insect cells using FLUOR DE LYS-SIRT1 as substrate preincubated for 5 mins followed by substrate addition measured after 30 mins by fluorescence based assay
[15] = biological target: T1, Protein deacetylase HDAC6; assay: Inhibition of His-tagged recombinant human HDAC6 expressed in baculovirus infected insect cells using Boc-Lys(Ac)-AMC as substrate preincubated for 5 mins followed by substrate addition measured after 30 mins by fluorescence based assay
DU-145 [16] = assay: Inhibition of colony formation in human DU-145 cells incubated for 10 days by crystal violet method; type: functional, cell-based; settings: DU-145, 240 h
PC-3 = assay: Inhibition of colony formation in human PC-3 cells incubated for 10 days by crystal violet method; type: functional, cell-based; settings: PC-3, 240 h
DU-145 [17] = assay: Cytotoxicity against human DU-145 cells assessed as cell growth inhibition; type: functional, cell-based
Histone deacetylase 8 [18] = biological target: T5, Histone deacetylase 8; assay: Inhibition of HDAC8 (unknown origin)
[19] = biological target: Phosphatidylinositol 4,5-bisphosphate 3-kinase catalytic subunit alpha isoform (Homo sapiens, UniProt P42336); assay: Inhibition of PI3K-alpha (unknown origin)
SMMC-7721 = assay: cells; type: functional, cell-based; settings: Homo sapiens, SMMC-7721, 48 h

T3 sequence (Q13547 whole entry, the tested form may be a part): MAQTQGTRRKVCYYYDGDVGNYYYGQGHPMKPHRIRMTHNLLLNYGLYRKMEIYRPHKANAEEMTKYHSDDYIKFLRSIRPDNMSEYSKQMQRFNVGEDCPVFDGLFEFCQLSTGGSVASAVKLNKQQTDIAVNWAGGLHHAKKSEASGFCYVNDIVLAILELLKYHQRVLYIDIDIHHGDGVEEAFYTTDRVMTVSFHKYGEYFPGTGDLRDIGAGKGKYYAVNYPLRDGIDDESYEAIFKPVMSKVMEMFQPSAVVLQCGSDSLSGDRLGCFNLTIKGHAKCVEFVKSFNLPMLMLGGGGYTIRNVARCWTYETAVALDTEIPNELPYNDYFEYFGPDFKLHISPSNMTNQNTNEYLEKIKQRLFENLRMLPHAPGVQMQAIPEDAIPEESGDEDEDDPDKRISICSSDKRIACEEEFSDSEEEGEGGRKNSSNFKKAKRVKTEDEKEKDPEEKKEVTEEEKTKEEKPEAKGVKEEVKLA
Chain of Histone deacetylase 2 (Q92769 whole entry): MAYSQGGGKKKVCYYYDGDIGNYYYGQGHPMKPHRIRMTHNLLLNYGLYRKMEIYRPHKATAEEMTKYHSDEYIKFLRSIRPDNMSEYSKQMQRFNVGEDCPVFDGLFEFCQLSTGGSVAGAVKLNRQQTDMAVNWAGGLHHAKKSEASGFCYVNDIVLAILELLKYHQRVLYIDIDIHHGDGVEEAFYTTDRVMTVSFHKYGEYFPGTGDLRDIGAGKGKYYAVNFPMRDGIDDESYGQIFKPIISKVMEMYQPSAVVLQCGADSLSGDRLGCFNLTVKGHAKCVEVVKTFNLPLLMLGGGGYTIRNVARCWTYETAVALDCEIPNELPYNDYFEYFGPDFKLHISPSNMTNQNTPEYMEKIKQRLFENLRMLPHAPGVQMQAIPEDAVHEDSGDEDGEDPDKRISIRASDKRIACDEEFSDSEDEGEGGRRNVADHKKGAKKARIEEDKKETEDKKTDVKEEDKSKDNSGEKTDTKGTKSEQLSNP
T4 sequence (O76083 whole entry): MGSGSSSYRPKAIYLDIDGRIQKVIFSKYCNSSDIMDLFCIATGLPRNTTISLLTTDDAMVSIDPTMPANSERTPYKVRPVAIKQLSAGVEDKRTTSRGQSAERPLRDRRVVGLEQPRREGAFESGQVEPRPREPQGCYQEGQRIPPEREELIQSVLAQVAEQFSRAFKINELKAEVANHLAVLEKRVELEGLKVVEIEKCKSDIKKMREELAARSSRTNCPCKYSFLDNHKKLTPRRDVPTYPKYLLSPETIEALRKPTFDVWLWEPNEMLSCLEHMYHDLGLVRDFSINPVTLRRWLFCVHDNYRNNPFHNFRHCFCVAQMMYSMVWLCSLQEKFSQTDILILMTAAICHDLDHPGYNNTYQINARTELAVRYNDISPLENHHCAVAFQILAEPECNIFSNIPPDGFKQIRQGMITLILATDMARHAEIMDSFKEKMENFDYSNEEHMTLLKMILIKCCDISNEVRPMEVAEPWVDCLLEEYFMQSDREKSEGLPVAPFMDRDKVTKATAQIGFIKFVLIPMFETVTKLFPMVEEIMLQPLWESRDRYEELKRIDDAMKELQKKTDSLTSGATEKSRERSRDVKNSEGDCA
Chain of Protein-glutamine gamma-glutamyltransferase (P21980 whole entry): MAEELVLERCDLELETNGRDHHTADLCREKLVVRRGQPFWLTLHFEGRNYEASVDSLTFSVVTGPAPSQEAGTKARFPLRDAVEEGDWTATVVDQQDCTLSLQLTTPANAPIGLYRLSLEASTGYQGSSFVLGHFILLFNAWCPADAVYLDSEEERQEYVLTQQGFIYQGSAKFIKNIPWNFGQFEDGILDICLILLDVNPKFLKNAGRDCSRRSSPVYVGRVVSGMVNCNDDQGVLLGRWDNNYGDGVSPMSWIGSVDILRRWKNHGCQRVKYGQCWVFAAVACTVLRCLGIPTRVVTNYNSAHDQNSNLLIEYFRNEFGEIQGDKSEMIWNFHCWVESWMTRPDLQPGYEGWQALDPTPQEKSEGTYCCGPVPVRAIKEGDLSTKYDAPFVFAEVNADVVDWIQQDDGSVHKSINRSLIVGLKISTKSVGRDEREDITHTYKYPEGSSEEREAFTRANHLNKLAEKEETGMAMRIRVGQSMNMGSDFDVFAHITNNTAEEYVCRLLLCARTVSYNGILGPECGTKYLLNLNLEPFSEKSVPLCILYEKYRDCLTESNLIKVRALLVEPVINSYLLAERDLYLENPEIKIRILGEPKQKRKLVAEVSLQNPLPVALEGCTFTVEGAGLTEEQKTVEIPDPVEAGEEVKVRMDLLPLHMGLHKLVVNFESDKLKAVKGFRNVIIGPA
Chain of 72 kDa type IV collagenase (P08253 whole entry): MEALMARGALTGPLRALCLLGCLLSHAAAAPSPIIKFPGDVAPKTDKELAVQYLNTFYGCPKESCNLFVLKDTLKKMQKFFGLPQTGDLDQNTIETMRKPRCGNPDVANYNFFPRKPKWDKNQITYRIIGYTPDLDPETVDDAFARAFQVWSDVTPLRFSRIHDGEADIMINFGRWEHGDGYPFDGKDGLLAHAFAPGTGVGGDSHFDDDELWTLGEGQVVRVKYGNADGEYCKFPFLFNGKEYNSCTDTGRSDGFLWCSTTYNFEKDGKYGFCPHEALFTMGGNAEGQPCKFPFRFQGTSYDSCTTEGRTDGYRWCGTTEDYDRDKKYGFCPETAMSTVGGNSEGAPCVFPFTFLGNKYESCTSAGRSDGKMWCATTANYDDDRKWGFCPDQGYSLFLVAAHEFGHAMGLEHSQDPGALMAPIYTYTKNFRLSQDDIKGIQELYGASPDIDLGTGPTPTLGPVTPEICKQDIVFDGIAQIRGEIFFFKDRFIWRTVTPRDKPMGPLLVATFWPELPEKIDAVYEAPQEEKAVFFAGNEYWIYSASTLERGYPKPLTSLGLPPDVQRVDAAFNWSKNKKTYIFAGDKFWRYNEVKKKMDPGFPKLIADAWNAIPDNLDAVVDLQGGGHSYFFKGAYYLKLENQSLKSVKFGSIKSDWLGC
Chain of Phosphatidylinositol 4,5-bisphosphate 3-kinase catalytic subunit alpha isoform (P42336 whole entry, canonical isoform): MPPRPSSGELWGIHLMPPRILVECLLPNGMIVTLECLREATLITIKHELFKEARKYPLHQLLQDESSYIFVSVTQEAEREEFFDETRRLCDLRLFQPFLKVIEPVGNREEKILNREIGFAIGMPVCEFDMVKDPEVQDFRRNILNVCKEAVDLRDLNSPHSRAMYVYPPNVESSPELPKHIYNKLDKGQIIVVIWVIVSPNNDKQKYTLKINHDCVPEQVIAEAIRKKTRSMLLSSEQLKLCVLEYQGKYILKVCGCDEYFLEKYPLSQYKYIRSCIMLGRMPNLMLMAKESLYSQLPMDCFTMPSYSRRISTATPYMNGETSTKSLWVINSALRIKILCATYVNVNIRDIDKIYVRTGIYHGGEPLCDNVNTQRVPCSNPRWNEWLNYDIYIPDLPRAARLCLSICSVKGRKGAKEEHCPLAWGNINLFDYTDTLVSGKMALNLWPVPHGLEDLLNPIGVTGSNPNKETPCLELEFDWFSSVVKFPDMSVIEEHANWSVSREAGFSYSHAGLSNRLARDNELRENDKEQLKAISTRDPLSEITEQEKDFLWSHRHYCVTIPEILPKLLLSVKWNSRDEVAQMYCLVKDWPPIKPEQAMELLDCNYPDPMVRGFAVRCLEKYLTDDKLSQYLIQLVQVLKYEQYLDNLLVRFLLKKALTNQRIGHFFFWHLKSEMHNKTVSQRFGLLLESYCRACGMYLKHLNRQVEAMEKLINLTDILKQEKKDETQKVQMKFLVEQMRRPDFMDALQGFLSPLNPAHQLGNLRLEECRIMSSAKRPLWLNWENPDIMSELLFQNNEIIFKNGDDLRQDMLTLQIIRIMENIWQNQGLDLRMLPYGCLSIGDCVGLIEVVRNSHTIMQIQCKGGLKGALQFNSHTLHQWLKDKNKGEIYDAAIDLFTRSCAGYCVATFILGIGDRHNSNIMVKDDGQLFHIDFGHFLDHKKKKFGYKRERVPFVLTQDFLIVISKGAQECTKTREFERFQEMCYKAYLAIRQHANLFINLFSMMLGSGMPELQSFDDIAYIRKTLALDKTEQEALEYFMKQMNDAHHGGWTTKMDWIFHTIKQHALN

Compound: CCCc1nn(C)c2c(=O)[nH]c(-c3cc(CC4CC(C(=O)NO)C4)ccc3OCC)nc12 (stereo unspecified)
IC50 [1]: 81 nM
IC50 [2]: 60 nM
IC50 (Histone deacetylase 1 [3]): 310 nM
IC50 [4]: > 10000 nM

Compound: O=C(CCCCNC(=S)Nc1ccc(/C=C/C(=O)c2cccnc2)cc1)NO
IC50 [12]: 13300 nM
IC50 [6]: 4100 nM
EC50 (Cortical neurone): 3700 nM
IC50 (Histone deacetylase 1 [8]): 3380 nM

Compound: CC(=O)SCCCCCCOc1ccc2c(c1)N(C)[C@@H](C(C)C)C(=O)N[C@H](CO)C2
Ki [13]: 8.7 nM

Compound: O=C(NO)c1ccc(/C=N/NC(=O)c2cc(N3CCOCC3)nc(-c3cccc(O)c3)n2)cc1
IC50 [6]: 15.3 nM
IC50 [19]: 46.3 nM

Compound: CC(C)=CCC/C(C)=C/CC/C(C)=C/CSc1ccccc1C(=O)O [SALIRASIB]
IC50 (SMMC-7721): 6700 nM

Compound: C[C@H]1CN(Cc2ccc(/C=C/C(=O)NO)cc2)C[C@@H]1c1nc2c(cnn2C2CCOCC2)c(=O)[nH]1
IC50 [5]: 8 nM
IC50 [6]: 508 nM
IC50 [7]: > 10000 nM
IC50 (Histone deacetylase 2): 1250 nM
IC50 (Histone deacetylase 1 [8]): 138 nM

More lines, main results first:

IC50 [5]: 57 nM
IC50 [6]: > 10000 nM
IC50 [7]: > 10000 nM
IC50 (Histone deacetylase 2): 545 nM
IC50 (Histone deacetylase 1 [8]): 99 nM
Compound: C[C@@H](c1nc2c(cnn2C2CCCC2)c(=O)[nH]1)N1CC(Cc2ccc(C(=O)Nc3ccccc3N)cc2)C1

IC50 [6]: > 20000 nM
IC50 [9]: 114 nM
IC50 (Histone deacetylase 2): > 20000 nM
IC50 (Histone deacetylase 1 [8]): 673 nM
Compound: CCCc1nn(C)c2c(=O)[nH]c(-c3cc(Cc4ccc(C(=O)Nc5ccccc5N)cc4)ccc3OCC)nc12

IC50 [5]: 107 nM
IC50 [6]: 40 nM
IC50 [7]: > 10000 nM
IC50 (Histone deacetylase 2): 3530 nM
IC50 (Histone deacetylase 1 [8]): 593 nM
Compound: C[C@H]1CN(Cc2ccc(C(=O)NO)cc2)C[C@@H]1c1nc2c(cnn2C2CCCC2)c(=O)[nH]1

IC50 [10]: 83700 nM
IC50 (Histone deacetylase 8 [11]): 3800 nM
Compound: COc1ccc(CC(=O)N[C@@H](CCC(=O)O)C(=O)NCc2ccccc2)cc1

IC50 (Histone deacetylase 1 [14]): 16.6 nM
IC50 [15]: 2.2 nM
IC50 (DU-145 [16]): 160 nM
IC50 (PC-3): 310 nM
Compound: O=C(CCCCCNC(=O)c1cccc2cc3ccccc3nc12)NO

IC50 [6]: 20 nM
IC50 (Histone deacetylase 8 [18]): 220 nM
IC50 (Histone deacetylase 1 [8]): 47 nM
Compound: COc1cccc2c1C(=O)c1c(O)c3c(c(O)c1C2=O)C[C@@](O)(C(C)=O)C[C@@H]3O[C@H]1C[C@H](N)[C@H](O)[C@H](C)O1 [DAUNORUBICIN]
IC50 (DU-145 [17]): 130 nM
